Assay results from patent US20250092065A1, “2-(INDAZOL-5-YL)-6-(PIPERIDIN-4-YL)-1,7-NAPHTHYRIDINE DERIVATIVES AND RELATED COMPOUNDS AS MODULATORS FOR SPLICING NUCLEIC ACIDS AND FOR THE TREATMENT OF PROLIFERATIVE DISEASES” (REMIX THERAPEUTICS INC., priority 2022, published 2025).
Like-named read-outs stand apart in the source and are kept apart here.

Key:
MYB mRNA = experiment: RT-qPCR splicing assay, MYB mRNA canonical (CJ) and alternative (AJ) junction; format: cell-based, human; details: Homo sapiens; for AC50: MYB alternative junction mRNA, read-out: MYB AJ (increase in AJ mRNA, AC50)
Procedure, shortened: (§1)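 Canonical and alternative-exon junction isoforms were quantified by RT-qPCR in cell lysates, with ΔCt against a housekeeper (GAPDH/GUSB/PPIA), then ΔΔCt vs DMSO, converted to 2^(−ΔΔCt) and percent response. K562 or A673 cells were exposed for 24 h to 11 concentrations (3-fold, top final 10 uM).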

SMN2 mRNA = experiment: RT-qPCR splicing assay, SMN2 mRNA; format: cell-based, human; details: Homo sapiens, canonical junction qPCR panel, Table 4; read-out: SMN2 IC50 (decrease in CJ mRNA levels)
Procedure, shortened: as §1

MYB = experiment: HiBiT protein abundance assay, MYB (K562 HiBiT knock-in); format: cell-based, human; details: HiBiT knock-in K562 cells, 24 hours, top dose 10 μM
Procedure, shortened: (§2)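 Steps: seed HiBiT knock-in K562 cells; add compound in 10-point 3-fold series from 10 μM final; incubate 24 h, 37 °C; add lytic HiBiT reagent, shake 5 min, wait 10 min; read luminescence. Normalize to parental K562 and DMSO controls, fit 4PL, take IC50.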

HTT = experiment: HiBiT protein abundance assay, HTT (K562 HiBiT knock-in); format: cell-based, human; details: HiBiT knock-in K562 cells, 24 hours, top dose 10 μM
Procedure, shortened: as §2

Target C = experiment: HiBiT protein abundance assay, Target C (K562 HiBiT knock-in); format: cell-based, human; details: HiBiT knock-in K562 cells, 24 hours, top dose 10 μM
Procedure, shortened: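 K562 HiBiT knock-in cells (10000/well) were treated 24 h at 37° C with a 10-point 3-fold dilution series (top 10 μM final, ≤0.25% DMSO). HiBiT luminescence was read after lytic LgBiT detection. Percent response used unmodified K562 and DMSO-treated knock-in controls, and IC50 came from a four-parameter fit at 50% of untreated.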

K562 cells = experiment: Cell Titer Glo 2.0 cell viability (toxicity) assay, K562; details: 500 cells/well, 72 hours
[1] = MYB canonical junction mRNA, RT-qPCR, read-out: MYB CJ (decrease in CJ mRNA levels, IC50)
[2] = canonical junction qPCR panel, Table 4, read-out: MYB IC50 (decrease in CJ mRNA levels)

SMILES | IC50 (MYB mRNA; [1]) [nM] | IC50 (MYB mRNA; [2]) [nM] | IC50 (SMN2 mRNA) [nM] | IC50 (MYB) [nM] | IC50 (HTT) [nM] | IC50 (Target C) [nM] | AC50 (MYB mRNA; RT-qPCR) [nM] | Effect of Exemplary Compounds on Cell Viability, K562 (K562 cells)
Cc1c(O)c(-c2ncc3nc(N4CCC5(CCN5)C4)ccc3n2)cc2cn(C)nc12 (stereo not shown) [Compound 342, 5-(6-{1,6-diazaspiro[3.4]octan-6-yl}pyrido[3,2-d]pyrimidin-2-yl)-2,7-dimethylindazol-6-ol] | 100 to 1000 | 100 to 1000 | < 100 | 100 to 1000 | 100 to 1000 | 100 to 1000 | 100 to 1000 | B (B represents 100-1000 nM)
Cc1cc2nc(-c3ccc4nc(N5CCC(NC(C)(C)C)C5)ccc4n3)cn2c(C)n1 (stereo not shown) [Compound 344, N-tert-butyl-1-(6-{5,7-dimethylimidazo[1,2-c]pyrimidin-2-yl}-1,5-naphthyridin-2-yl)pyrrolidin-3-amine] | 1000 to 10000 | 1000 to 10000 | < 100 | 1000 to 10000 | 1000 to 10000 | 1000 to 10000 | 1000 to 10000 | D (D represents greater than 10 μM in K562 cells)

Continued, in another order:

IC50 (MYB mRNA; [1]) [nM] | IC50 (MYB mRNA; [2]) [nM] | IC50 (SMN2 mRNA) [nM] | IC50 (MYB) [nM] | IC50 (HTT) [nM] | IC50 (Target C) [nM] | SMILES | AC50 (MYB mRNA; RT-qPCR) [nM] | Effect of Exemplary Compounds on Cell Viability, K562 (K562 cells)
100 to 1000 | 100 to 1000 | < 100 | 100 to 1000 | 100 to 1000 | < 100 | Cn1cc2cc(-c3ccc4nc(N5CCC(NC67CC(O)(C6)C7)C5)ccc4n3)c(O)cc2n1 (stereo not shown) [Compound 341, 5-{6-[3-({3-hydroxybicyclo[1.1.1]pentan-1-yl}amino)pyrrolidin-1-yl]-1,5-naphthyridin-2-yl}-2-methylindazol-6-ol] | 100 to 1000 | B (B represents 100-1000 nM)
1000 to 10000 | 1000 to 10000 | 100 to 1000 | 1000 to 10000 | 1000 to 10000 | 1000 to 10000 | CCc1nc2cc(O)c(-c3ccc4nc(N5CCC(NC(C)(C)C)C5)ccc4n3)cc2o1 (stereo not shown) [Compound 346, 6-{6-[3-(tert-butylamino)pyrrolidin-1-yl]-1,5-naphthyridin-2-yl}-2-ethyl-1,3-benzoxazol-5-ol] | 1000 to 10000 | C (C represents 1000-9999 nM)
100 to 1000 | 100 to 1000 | < 100 | 100 to 1000 | < 100 | 100 to 1000 | Cc1nc2cc(O)c(-c3ccc4nc(N5CC[C@H](N[C@H]6C[C@H](F)C6)C5)ccc4n3)cc2o1 [Compound 350, 2-methyl-6-{6-[(3S)-3-{[(1r,3r)-3-fluorocyclobutyl]amino}pyrrolidin-1-yl]-1,5-naphthyridin-2-yl}-1,3-benzoxazol-5-ol] | 100 to 1000 | B (B represents 100-1000 nM)
